Patent US10245275B2 (ViiV HEALTHCARE UK (NO.4) LIMITED, priority 2014, dated 2019)
Like-named read-outs stand apart in the source and are kept apart here.

Columns and labels:
[1] = tested on: HIV-1 NL4-3 gag A364V virus; test: microbe, parasite or virus in culture; format: cell-based
Method: (§1) MT-2 cells and 293T cells were obtained from the NIH AIDS Research and Reference Reagent Program. MT-2 cells were propagated in RPMI 1640 media supplemented with 10% heat-inactivated fetal bovine serum, […]. The 293T cells were propagated in DMEM media supplemented with 10% heat-inactivated fetal bovine serum (FBS), 100 units/mL penicillin G and 100 μg/mL streptomycin. […] A recombinant NL4-3 virus, in which a section of the nef gene from NL4-3 was replaced with the Renilla luciferase gene, was used as a reference virus. In addition, residue Gag P373 was converted to P373S. […] Transfections were performed in 293T cells using LipofectAMINE PLUS from Invitrogen (Carlsbad, Calif.), according to manufacturer's instruction. The virus was titered in MT-2 cells using luciferase enzyme activity as a marker. Luciferase was quantitated using the Dual Luciferase kit from Promega (Madison, Wis.), with modifications to the manufacturer's protocol. The diluted Passive Lysis solution was pre-mixed with the re-suspended Luciferase Assay Reagent and the re-suspended Stop & Glo Substrate (2:1:1 ratio). Fifty (50) μL of the mixture was added to each aspirated well on assay plates and luciferase activity was measured immediately on a Wallac TriLux (Perkin-Elmer). Antiviral activities of inhibitors toward the recombinant virus were quantified by measuring luciferase activity in cells infected for 4-5 days with NLRluc recombinants in the presence serial dilutions of the inhibitor.
Both recombinant viruses were used as described above in the HIV cell culture assay for the NL4-3 virus.

[2] = tested on: WT (wild-type HIV virus; recombinant NL4-3 virus); test: microbe, parasite or virus in culture; format: cell-based, HIV-1
Method: as §1
WT refers to wild-type HIV virus. […]

[3] = Human immunodeficiency virus 1, NL43, MT2, read-out: A364V (EC50, uM), Table 1 regular screen, class symbol
[4] = Human immunodeficiency virus 1, NL43, MT2, read-out: WT (EC50, uM), Table 1 regular screen, class symbol
[5] = Human immunodeficiency virus 1, NL43, MT2, read-out: A364V (EC50, uM), Table 1 regular screen, MT-2 cells, luciferase readout
[6] = Human immunodeficiency virus 1, NL43, MT2, read-out: WT (EC50, uM), Table 1 regular screen, MT-2 cells, luciferase readout

| SMILES | EC50 [1, 3] [µM] | EC50 [2, 4] [µM] | EC50 [1, 5] [µM] | EC50 [2, 6] [µM] |
| --- | --- | --- | --- | --- |
| C=C(C)[C@@H]1CC[C@]2(NCCN3CC(C)S(=O)(=O)C(C)C3)CC[C@]3(C)[C@H](CC[C@@H]4[C@@]5(C)CC=C(C6=CC[C@@](CF)(C(=O)O)CC6)C(C)(C)[C@@H]5CC[C@]43C)[C@@H]12 (stereo partly drawn) [Example 24, (1R)-4-((1R,3aS,5aR,5bR,7aR,11aS,11bR,13aR,13bR)-3a-((2-(2,6-dimethyl-1,1-dioxidothiomorpholino)ethyl)amino)-5a,5b,8,8,11a-pentamethyl-1-(prop-1-en-2-yl)-2,3,3a,4,5,5a,5b,6,7,7a,8,11,11a,11b,12,13,13a,13b-octadecahydro-1H-cyclopenta[a]chrysen-9-yl)-1-(fluoromethyl)cyclohex-3-enecarboxylic acid] | > 0.05 | < 0.05 |  |  |
| C=C(C)[C@@H]1CC[C@]2(NCC(=O)N3CCS(=O)(=O)CC3)CC[C@]3(C)[C@H](CC[C@@H]4[C@@]5(C)CC=C(C6=CC[C@](CF)(C(=O)O)CC6)C(C)(C)[C@@H]5CC[C@]43C)[C@@H]12 [Example 29, (S)-4-((1R,3aS,5aR,5bR,7aR,11aS,11bR,13aR,13bR)-3a-((2-(1,1-dioxidothiomorpholino)-2-oxoethyl)amino)-5a,5b,8,8,11a-pentamethyl-1-(prop-1-en-2-yl)-2,3,3a,4,5,5a,5b,6,7,7a,8,11,11a,11b,12,13,13a,13b-octadecahydro-1H-cyclopenta[a]chrysen-9-yl)-1-(fluoromethyl)cyclohex-3-enecarboxylic acid] | > 0.05 | < 0.05 |  |  |
| C=C(C)[C@@H]1CC[C@]2(NC(CN3CCS(=O)(=O)CC3)C(F)(F)F)CC[C@]3(C)[C@H](CC[C@@H]4[C@@]5(C)CC=C(C6=CC[C@](CF)(C(=O)O)CC6)C(C)(C)[C@@H]5CC[C@]43C)[C@@H]12 (single isomer, unassigned) [Example 42] | > 0.05 | > 0.05 |  |  |
| C=C(C)[C@@H]1CC[C@]2(NCCN3CCNC3=O)CC[C@]3(C)[C@H](CC[C@@H]4[C@@]5(C)CC=C(C6=CC[C@](CF)(C(=O)O)CC6)C(C)(C)[C@@H]5CC[C@]43C)[C@@H]12 [Example 2-25, (S)-1-(fluoromethyl)-4-((1R,3aS,5aR,5bR,7aR,11aS,11bR,13aR,13bR)-5a,5b, 8,8,11a-pentamethyl-3a-((2-(2-oxoimidazolidin-1-yl)ethyl)amino)-1-(prop-1-en-2-yl)-2,3,3a,4,5,5a,5b,6,7,7a,8,11,11a,11b,12,13,13a,13b-octadecahydro-1H-cyclopenta[a]chrysen-9-yl)cyclohex-3-enecarboxylic acid] | > 0.05 | < 0.05 |  |  |
| C=C(C)[C@@H]1CC[C@]2(NC(=O)CC3CCOCC3)CC[C@]3(C)[C@H](CC[C@@H]4[C@@]5(C)CC=C(C6=CC[C@](CF)(C(=O)O)CC6)C(C)(C)[C@@H]5CC[C@]43C)[C@@H]12 [Example 8, (S)-1-(fluoromethyl)-4-((1R,3aS,5aR,5bR,7aR,11aS,11bR,13aR,13bR)-5a,5b,8,8,11a-pentamethyl-1-(prop-1-en-2-yl)-3a-(2-(tetrahydro-2H-pyran-4-yl)acetamido)-2,3,3a,4,5,5a,5b,6,7,7a,8,11,11a,11b,12,13,13a,13b-octadecahydro-1H-cyclopenta[a]chrysen-9-yl)cyclohex-3-enecarboxylic acid] | > 0.05 | > 0.05 |  |  |
| C=C(C)[C@@H]1CC[C@]2(NCC[C@]3(O)CC[C@](C)(O)CC3)CC[C@]3(C)[C@H](CC[C@@H]4[C@@]5(C)CC=C(C6=CC[C@](CF)(C(=O)O)CC6)C(C)(C)[C@@H]5CC[C@]43C)[C@@H]12 [Example 2-16, (S)-4-((1R,3aS,5aR,5bR,7aR,11aS,11bR,13aR,13bR)-3a-((2-((trans)-1,4-dihydroxy-4-methylcyclohexyl)ethyl)amino)-5a,5b,8,8,11a-pentamethyl-1-(prop-1-en-2-yl)-2,3,3a,4,5,5a,5b,6,7,7a,8,11,11a,11b,12,13,13a,13b-octadecahydro-1H-cyclopenta[a]chrysen-9-yl)-1-(fluoromethyl)cyclohex-3-enecarboxylic acid] |  |  | 0.0571 | 0.0021 |
| C=C(C)[C@@H]1CC[C@]2(NCCN3CCCC3=O)CC[C@]3(C)[C@H](CC[C@@H]4[C@@]5(C)CC=C(C6=CC[C@](CF)(C(=O)O)CC6)C(C)(C)[C@@H]5CC[C@]43C)[C@@H]12 [Example 20, (S)-1-(fluoromethyl)-4-((1R,3aS,5aR,5bR,7aR,11aS,11bR,13aR,13bR)-5a,5b, 8,8,11a-pentamethyl-3a-((2-(2-oxopyrrolidin-1-yl)ethyl)amino)-1-(prop-1-en-2-yl)-2,3,3a,4,5,5a,5b,6,7,7a,8,11,11a,11b,12,13,13a,13b-octadecahydro-1H-cyclopenta[a]chrysen-9-yl)cyclohex-3-enecarboxylic acid] |  |  | 0.129 | 0.00253 |
| C=C(C)[C@@H]1CC[C@]2(NCCN3CCC(C(=O)OCC)(C(=O)OCC)CC3)CC[C@]3(C)[C@H](CC[C@@H]4[C@@]5(C)CC=C(C6=CC[C@@](CF)(C(=O)O)CC6)C(C)(C)[C@@H]5CC[C@]43C)[C@@H]12 [Example 13, (R)-4-((1R,3aS,5aR,5bR,7aR,11aS,11bR,13aR,13bR)-3a-((2-(4,4-bis(ethoxycarbonyl)piperidin-1-yl)ethyl)amino)-5a,5b, 8,8,11a-pentamethyl-1-(prop-1-en-2-yl)-2,3,3a,4,5,5a,5b,6,7,7a,8,11,11a,11b,12,13,13a,13b-octadecahydro-1H-cyclopenta[a]chrysen-9-yl)-1-(fluoromethyl)cyclohex-3-enecarboxylic acid] |  |  | 0.196 | 0.0188 |
| CC(C)[C@@H]1CC[C@]2(NCCN3CCS(=O)(=O)CC3)CC[C@]3(C)[C@H](CC[C@@H]4[C@@]5(C)CC=C(C6CCC(CF)(C(=O)O)CC6)C(C)(C)[C@@H]5CC[C@]43C)[C@@H]12 (stereo partly drawn) [Example 23, 4-((1S,3aS,5aR,5bR,7aR,11aS,11bR,13aR,13bR)-3a-((2-(1,1-dioxidothiomorpholino)ethyl)amino)-1-isopropyl-5a,5b, 8,8,11a-pentamethyl-2,3,3a,4,5,5a,5b,6,7,7a,8,11,11a,11b,12,13,13a,13b-octadecahydro-1H-cyclopenta[a]chrysen-9-yl)-1-(fluoromethyl)cyclohexanecarboxylic acid] | > 0.05 | < 0.05 |  |  |
| C=C(C)[C@@H]1CC[C@]2(CNCC(C)(C)N3CCS(=O)(=O)CC3)CC[C@]3(C)[C@H](CC[C@@H]4[C@@]5(C)CC=C(C6=CC[C@](CF)(C(=O)O)CC6)C(C)(C)[C@@H]5CC[C@]43C)[C@@H]12 [Example 10, (S)-4-((1R,3aS,5aR,5bR,7aR,11aS,11bR,13aR,13bR)-3a-(((2-(1,1-dioxidothiomorpholino)-2-methylpropyl)amino)methyl)-5a,5b, 8,8,11a-pentamethyl-1-(prop-1-en-2-yl)-2,3,3a,4,5,5a,5b,6,7,7a,8,11,11a,11b,12,13,13a,13b-octadecahydro-1H-cyclopenta[a]chrysen-9-yl)-1-(fluoromethyl)cyclohex-3-enecarboxylic acid] | < 0.05 | < 0.05 |  |  |
| C=C(C)[C@@H]1CC[C@]2(NCCN3CCSCC3C(=O)O)CC[C@]3(C)[C@H](CC[C@@H]4[C@@]5(C)CC=C(C6=CC[C@@](CF)(C(=O)O)CC6)C(C)(C)[C@@H]5CC[C@]43C)[C@@H]12 (stereo partly drawn) [Example 18, 4-(2-(((1R,3aS,5aR,5bR,7aR,11aS,11bR,13aR,13bR)-9-((R)-4-carboxy-4-(fluoromethyl)cyclohex-1-en-1-yl)-5a,5b,8,8,11a-pentamethyl-1-(prop-1-en-2-yl)-2,3,3a,4,5,5a,5b,6,7,7a,8,11,11a,11b,12,13,13a,13b-octadecahydro-1H-cyclopenta[a]chrysen-3a-yl)amino)ethyl)thiomorpholine-3-carboxylic acid] |  |  | 3 | 0.0243 |
| C=C(C)[C@@H]1CC[C@]2(NCCN3CCOC3=O)CC[C@]3(C)[C@H](CC[C@@H]4[C@@]5(C)CC=C(C6=CC[C@](CF)(C(=O)O)CC6)C(C)(C)[C@@H]5CC[C@]43C)[C@@H]12 [Example 2-24, (S)-1-(fluoromethyl)-4-((1R,3aS,5aR,5bR,7aR,11aS,11bR,13aR,13bR)-5a,5b,8,8,11a-pentamethyl-3a-((2-(2-oxooxazolidin-3-yl)ethyl)amino)-1-(prop-1-en-2-yl)-2,3,3a,4,5,5a,5b,6,7,7a,8,11,11a,11b,12,13,13a,13b-octadecahydro-1H-cyclopenta[a]chrysen-9-yl)cyclohex-3-enecarboxylic acid] |  |  | 0.932 | 0.0053 |
| C=C(C)[C@@H]1CC[C@]2(NCCN3CCS(=O)(=O)CC3C(=O)OCC)CC[C@]3(C)[C@H](CC[C@@H]4[C@@]5(C)CC=C(C6=CC[C@@](CF)(C(=O)O)CC6)C(C)(C)[C@@H]5CC[C@]43C)[C@@H]12 (single isomer, unassigned) [Example 14] | < 0.05 | < 0.05 |  |  |
